Consider two substances from patent US20150064710A1, “METHOD FOR INHIBITING CELL GROWTH, NUCLEIC ACID MOLECULE HAVING RNA INTERFERENCE EFFECT ON NEK10 VARIANT GENE, AND ANTICANCER AGENT” (Nippon Kayaku Kabushiki Kaisha, priority 2011, published 2015).

In one data set the test system is NEK10 variant mRNA. In words: Expression inhibitory effect on NEK10 variant mRNA (real-time PCR using SYBR Green after siRNA transfection). The format is cell-based, human. The settings on record: breast cancer cell line MDA-MB-231; siRNA (20 nM) with Lipofectamine RNAiMAX; 72 hours culture after transfection; first control siRNA treatment group = 100. The text has this: After carrying out siRNA treatment by transfecting cells with siRNA consisting of the combination of sense RNA consisting of the base sequence represented by SEQ ID NO: 2 and antisense RNA consisting of the base sequence represented by SEQ ID NO: 3 (to be referred to as NEK10 siRNA #1) and siRNA consisting of the combination of sense RNA consisting of the base sequence represented by SEQ ID NO: 4 and antisense RNA consisting of the base sequence represented by SEQ ID NO: 5 (to be referred to as NEK10 siRNA #2), NEK10 variant mRNA was measured by real-time PCR using SYBR™ Green to study the knockdown effects on NEK10 variant mRNA.
Breast cancer cell line MDA-MB-231, which was confirmed to express NEK10 variant mRNA in Example 1, was transfected with control siRNA, NEK10 siRNA #1 or NEK10 siRNA #2, and NEK10 variant mRNA following siRNA treatment was measured by real-time PCR using SYBR™ Green to study the knockdown effects on NEK10 variant mRNA of each siRNA. The control siRNA was purchased from Invitrogen, and siRNA synthesized by Invitrogen was used for NEK10 siRNA #1 and NEK10 siRNA #2. […]
Using 500 ng of the purified RNA, cDNA was prepared in the same manner as Reference Example 1 using the reverse transcriptase Superscript III (Invitrogen). Ct values were measured in the same manner as Reference Example 1 using 1 μL of the resulting cDNA as template. […]
In general terms: Quantitative PCR measures a nucleic acid by following its amplification.

The next data set concerns MDA-MB-231 cells. Briefly: Growth inhibitory effect of NEK10 siRNA on cancer cells (methylene blue assay). The format is cell-based. As to conditions: MDA-MB-231 breast cancer cells; 72 hours after siRNA transfection; absorbance at 660 nm; control siRNA treatment group of first experiment = 100. As to the method:
NEK10 siRNA #1 and NEK10 siRNA #2 were confirmed to have growth inhibitory effects on cancer cells. Namely, a study was conducted by methylene blue assay to determine whether cell growth is inhibited by knocking down NEK10 variant gene by transfecting the cells with NEK10 siRNA #1 and NEK10 siRNA #2.
MDA-MB-231 cells were transfected with each siRNA in the same manner as previously described (Confirmation of Expression Inhibitory Effect on NEK10 Variant mRNA) followed by culturing for 72 hours after transfection. After culturing, the medium was removed followed by the addition of 1000 μL of methanol and allowing to stand for 2 minutes at room temperature to fix the cells. After removing the methanol, 1000 μL of dye solution (0.05% methylene blue solution) were added followed by dyeing for 30 minutes. After washing three times with 4 mL of distilled water, 2 mL of a 3% HCl solution were added followed by measurement of the absorbance of methylene blue at 660 nm using a microplate reader (BioRad).
The experiment was conducted in triplicate and the same experiment was repeated three times. The average triplicate value of the control siRNA treatment group of the first experiment was used as a control, the cell growth rates (%) were calculated according to the following Equation (5) using the average triplicate values of the siRNA treatment group of each experiment. […]

With “NEK10 siRNA #1: siRNA of sense RNA SEQ ID NO: 2 (5'-GAAAUCCUGUCAGAUGAUAACUUCA-3') and antisense RNA SEQ ID NO: 3 (antisense UGAAGUUAUCAUCUGACAGGAUUUC; RNA, backbone not given here)”, in the data set with NEK10 variant mRNA, the “percentage of NEK10 mRNA versus the control” value is listed as 11±0.5%. In the data set with MDA-MB-231 cells, the cell growth rate is 34±14%.

“NEK10 siRNA #2: siRNA of sense RNA SEQ ID NO: 4 (5'-UCUGCCUUGUUUGUUCACCACUAUU-3') and antisense RNA SEQ ID NO: 5 (antisense AAUAGUGGUGAACAAACAAGGCAGA; RNA, backbone not given here)”: the “percentage of NEK10 mRNA versus the control” value in the data set with NEK10 variant mRNA was determined as 86±7.4%. Further, the cell growth rate with MDA-MB-231 cells is 58±17%.
